For test [1], the system named is phosphoglycerate kinase (PGK) mRNA. As to the kind of experiment: Phosphoglycerate kinase (PGK) mRNA expression in wild type murine embryonic fibroblasts (quantitative PCR). In kind it is cell-based. As to conditions: hypoxic conditions (1% O2); 1, 10 and 100 μM; vs. hypoxia control; FIG. 2A. How it is done: Total RNA was isolated from tissues and cells by using TRIzol™ Reagent (Invitrogen) and the RNeasy kit (Qiagen), respectively. 1 μg RNA was used for reverse transcription using SuperScript II First-Strand Synthersis System (Invitrogen). cDNA's were amplified in a SYR Green or TaqMan Universal Master Mix (Applied Biosystems). Quantitative PCR (qPCR) was performed on ABI Prism 7700 sequence detection system. PCR conditions are: 10 min at 95° C., 40 cycles of 15 seconds at 95° C. and 1 minute at 60° C. The relative amount of mRNA was calculated after normalization to β-actin.
Cells were cultured in DMEM (#11965-092, Invitrogen) supplemented with 10% fetal bovine serum (Invitrogen), 100 U/mL penicillin and […] streptomycin. For glucose deprivation, DMEM without glucose (#11966-025, Invitrogen) was used.
Mouse embryonic fibroblasts (MEFs) were isolated from E12.5 embryos and immortalized by stable transfection with SV40 large T antigen.

For test [2], the system named is tumor growth. Description: Tumor growth in LysMcre control mice and mice with myeloid-specific deletion of HIF-2α. The format is in vivo. The conditions noted are these: FIG. 15. The text has this:
(§1) HIF-2α^flox/flox mice (originally developed by Dr. Celeste Simon, University of Pennsylvania) and LysMcre recombinase mice (originally developed by Irmgard Foerster, University of Duesseldorf) (both purchased from The Jackson Laboratory, Bar Harbor, Me.) were crossed to generate mice homozygous for both LysMcre and the floxed HIF-2α allele. LysMcre recombinase mice, which express no floxed alleles, were used as controls. Deletion of HIF-2α in HIF-2α^flox/flox/LysMcre macrophages, but not the LysMcre control macrophages, was confirmed at the transcript level by real-time PCR.
The disclosed HIF-2α stabilizer is not targeted specifically to macrophages, and will stabilize HIF-2α in all tissues, not only the tumor-associated macrophages. In order to determine the role of macrophages in the anti-tumor response to the disclosed HIF-2α stabilizer, mice with a myeloid-specific deletion of HIF-2α (HIF-2α^flox/flox/LysMcre mice) were utilized.

Test [3] concerns sVEGFR-1. Description: sVEGFR-1 transcription in bone marrow-derived macrophages from LysMcre control and HIF-2α^flox/flox/LysMcre mice. The format is cell-based. As to conditions: FIG. 11F.
Source text: as §1
To generate bone marrow-derived macrophages (BDMs), femoral bone marrow was isolated and progenitor cells were plated in RPMI-1640 supplemented with 10% FBS, 1% PSA, 10 μg/mL of polymyxin B, and 20 ng/mL of recombinant murine M-CSF. Cells were cultured for 5 days with the addition of fresh M-CSF every other day. […]
Human monocytes were left untreated or were stimulated with 100 ng/mL GM-CSF at normoxia or at 0.5% O2. […] Data were analyzed according to the comparative threshold method and normalized against the β-actin internal control transcript. Results are semi-quantitative and represent the fold difference in transcript levels in a particular sample as compared with levels in untreated cells from the same donor. […]

The mark [4] stands for this setting: mice with HIF-2α-deficient macrophages.

The structures appear in SMILES notation.

As for `O=C(O)CNC(=O)c1ncc(-c2cccc(F)c2)cc1O` [disclosed HIF-2α stabilizer, {[5-(3-Fluorophenyl)-3-hydroxypyridine-2-carbonyl]amino}acetic acid], in test [1], the “PGK mRNA (relative amount)” value was “dramatic reduction”. For the same molecule, the tumor growth entry in test [2] (LysMcre control mice) is given as “inhibited tumor growth”; in test [2] (setting [4]) it was “reduced tumor growth”. Also, the “magnitude of the anti-tumor response relative to control mice” value in test [2] (setting [4]) is given as “much less”. The sVEGFR-1 transcription result in test [3] (HIF-2α-deficient macrophages, p=0.881) was “not”; in test [3] (control macrophages, p=0.036), “induced”.

The record behind these values is patent publication US8865748B2, “Compounds and compositions for stabilizing hypoxia inducible factor-2 alpha as a method for treating cancer” (Akebia Therapeutics Inc., priority 2011, dated 2014).
